# Results from patent US20260166159A1, “KRAS G12D DEGRADATION AGENT, AND PREPARATION METHOD AND USE THEREFOR” (LEADINGTAC PHARMACEUTICAL (SHAOXING) CO., LTD., priority 2022, published 2026).
# Columns and labels:
# Format in all cases: cell-based
# [1] = tested on: KRAS G12D mutant human gastric cancer cell AGS; test: 3D cell proliferation inhibition assay, AGS; details: 168 h, 7 days, CTG, numeric values
# Procedure, shortened: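 For this 7-day anchorage-independent assay, 5×10^2 cells per well were exposed to 10000–0.026 nM test compound with 0.2% DMSO at 37 °C. ATP-based luminescence (CTG) gave viability, and percent inhibition versus DMSO controls was curve-fitted to obtain IC50.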
# [2] = tested on: KRAS G12D mutant human metastatic pancreatic cancer cell AsPc-1; test: 3D cell proliferation inhibition assay, AsPc-1; details: ASPC1, 168 h, AsPc-1, 7 days, CTG, numeric values
# Text: (§1) The inhibitory effects of the compounds on 3D cell proliferation were investigated on KRAS G12D mutant human lung cancer cell A427, KRAS G12D mutant human gastric cancer cell AGS, KRAS G12D mutant human metastatic pancreatic cancer cell AsPc-1, KRAS G12D mutant human pancreatic cancer cell Panc 04.03, KRAS G12D mutant human pancreatic cancer cell HPAC, KRAS G12V mutant human lung squamous cell carcinoma cell SW900, and KRAS WT human gastric cancer cell MKN1. The specific procedures were as follows:
# (§2) 10 μL of each compound solution diluted in a gradient was added to corresponding wells of a 96-well low-adsorption microplate (PerkinElmer), so that the final concentrations of the test compounds in the reaction system were in a range of 10000-0.026 nM. The final concentration of DMSO was 0.2%. Then 90 µL of cells were correspondingly seeded into each well to achieve a cell density of 5×10^2 cells/well (the cell density of SW900 was 5×10^1 cells/well, and the cell density of MKN1 was 1×10^3 cells/well). In addition to test wells for the test compounds, both a DMSO control well and a medium control well were set, with the DMSO control well containing DMSO and cells and the medium well containing only a medium. After the sample loading, the 96-well low-adsorption microplate was incubated in an incubator at 37° C. with 5% carbon dioxide for 7 days. After 7 days, the microplate was taken out, and 100 μL of CTG reagent (Promega) was added to each well. The plate was incubated at room temperature for 60 min and read on a microplate reader EnVision by the chemiluminescence program. The inhibition rates of the compounds at each concentration were calculated using the formula for the percentage inhibition of cell proliferation: inhibition rate %=(mean value of DMSO control group−single concentration reading value of compound)/(mean value of DMSO control group−mean value of medium control group)×100. Then non-linear curve fittings for logarithmic concentration-inhibition rate were performed by GraphPad Prism 8, and the IC50 values of the compounds were obtained (Table 5).
# [3] = tested on: KRAS G12D mutant human pancreatic cancer cell Panc 04.03; test: 3D cell proliferation inhibition assay, Panc 04.03; details: 168 h, Panc 04.03, 7 days, CTG, numeric values
# Text: as §1, §2
# [4] = tested on: KRAS G12D mutant human pancreatic cancer cell HPAC; test: 3D cell proliferation inhibition assay, HPAC; details: 168 h, 7 days, CTG
# Text: as §1, §2
# KRAS-G12D = biological target: T1, KRAS-G12D (Homo sapiens, UniProt P01116, G12D); test: KRAS-G12D degradation assay (Western Blot), AsPc-1 cells; details: for DC50: 24 h; for Dmax: ASPC1, 24 h
# T1 construct: endogenous in cells; host or cells: A-427 (ATCC), AGS, AsPc-1, Panc 04.03
# T1 sequence (P01116 1-188 isoform P01116-2 G12D): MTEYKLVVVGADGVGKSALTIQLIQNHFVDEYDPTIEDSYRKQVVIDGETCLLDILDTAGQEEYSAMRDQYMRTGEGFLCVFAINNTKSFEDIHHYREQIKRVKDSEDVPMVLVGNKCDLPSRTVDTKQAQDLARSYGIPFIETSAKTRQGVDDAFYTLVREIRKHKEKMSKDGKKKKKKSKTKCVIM
# Description: The degradation effects of the compounds on KRAS-G12D were investigated on KRAS G12D mutant human lung cancer cell A-427 (ATCC), KRAS G12D mutant human gastric cancer cell AGS, KRAS G12D mutant human metastatic pancreatic cancer cell AsPc-1, and KRAS G12D mutant human pancreatic adenocarcinoma cell Panc 04.03. The specific procedures were as follows: 0.95 mL of cells were seeded into each well of a 24-well cell culture plate to achieve a cell density of 5×10^5 cells/well; and the cell plate was incubated in an incubator at 37° C. with 5% CO2 overnight. Then 50 μL of the compound solution after dilution was added to each of the wells with the corresponding cells, so that the final concentration of the compound was in a range of 0.03-3000 nM. The final concentration of DMSO was 0.25%. After the compounds were added, the cell plate was incubated in the incubator at 37° C. with 5% CO2 for 24 h. The culture medium in the 24-well cell culture plate was removed, and the plate was washed twice with 1×PBS (KeyGEN). 120 μL of RIPA (strong) lysis buffer (Beyotime) supplemented with 1 mM phenylmethylsulfonyl fluoride, a protease inhibitor mixture (Beyotime), and a protease phosphatase inhibitor mixture (Beyotime) was added to lyse adherent A-427 cells at the bottom of the cell culture plate. After the plate was left to stand on ice for 30 min, the protein lysate in each well was transferred to a 1.5 mL centrifuge tube and centrifuged at 15000 g for 20 min at 4° C. The cell lysate supernatants after centrifugation were cryopreserved in a refrigerator at −80° C. for later use.
# After the samples of the cell lysate supernatants that had been prepared were thawed from the refrigerator at −80° C., the total protein concentrations of the cell lysates were determined using a BCA protein quantification kit (Tiangen). The total protein concentrations of the samples were then adjusted to 0.5 μg/μL with PBS and 5×SDS-PAGE protein loading buffer (Beyotime), and the samples were incubated in a water bath at 100° C. for 15 min. The samples were then incubated in an ice bath for 5 min and centrifuged at 14000 g for 1 min at 4° C., and the supernatants were mixed well as loading samples for the Western Blot assay. The samples were loaded into wells of a 10% precast gel (KeyGEN) with a loading volume of 10 μL (total protein: 5 μg), a sufficient Tris-MOPS-SDS running buffer (Adamas) was added, and then electrophoresis was performed at a constant voltage of 120 V for 55 min. After the electrophoresis, the proteins on the gel were transferred to PVDF membranes at a constant current of 250 mA for 55 min. After the membrane transfer, the PVDF membranes were incubated in 1× Quick Block blocking buffer (Beyotime) at room temperature for 30 min. After the blocking, the PVDF membranes were separately incubated at 4° C. overnight with the KRAS antibody (Abcam) diluted in a ratio of 1:1000 and the […] antibody (Abcam) diluted in a ratio of 1:2000 in 5% BSA as the diluent, and then washed with 1×TBST buffer (2.4 g of Tris, 8.8 g of NaCl, 1.5 mL of Tween 20, with pH adjusted to 7.4, with the volume brought to 1 L) 3 times for 10 min/time. The membranes were incubated with a secondary antibody (Abcam) diluted in 5% BSA at room temperature for 2 h, and then washed with 1×TBST buffer 3 times for 10 min/time. Finally, the membranes were incubated with Clarity Western ECL Substrate (BIO-RAD) for 5 min for luminescence and color development, and a ChemiScope 6200 Touch chemiluminescence imaging system (Clinx) was used for color development and protein mapping. Gray value analysis of the protein maps was performed using the chemiluminescence analysis software (Clinx). The gray correction value for each sample was calculated using the formula: gray correction value=(gray value of target protein/gray value of corresponding internal reference)×10^3. Then degradation rates were calculated by comparison with the gray correction value of the control group. […]
Compound,IC50 [1] [nM],IC50 [2] [nM],IC50 [3] [nM],IC50 [4] [nM],DC50 (KRAS-G12D) [nM],Dmax (KRAS-G12D) [%]
"C#Cc1c(F)ccc2cc(O)cc(-c3ncc4c(N5CC6CCC(C5)N6)nc(OCC5(CN6CCN(CC7CCC8(CC7)CCN(C(=O)c7cc(N9CCC(=O)NC9=O)c(C)cc7F)CC8)CC6)CC5)nc4c3F)c12 [Example 104, 1-(5-(9-((4-((1-(((4-(3,8-diazabicyclo[3.2.1]octan-3-yl)-7-(8-ethynyl-7-fluoro-3-hydroxynaphthalen-1-yl)-8-fluoropyrido[4,3-d]pyrimidin-2-yl)oxy)methyl)cyclopropyl)methyl)piperazin-1-yl)methyl)-3-azaspiro[5.5]undecane-3-carbonyl)-4-fluoro-2-methylphenyl)dihydropyrimidine-2,4(1H,3H)-dione]",2.49,1.83,31.3,5.32,,
"C#Cc1c(F)ccc2cc(O)cc(-c3ccc4c(N5CC6CCC(C5)N6)nc(OC[C@H](C)CN5CCN(CC6CCC7(CC6)CCN(C(=O)c6ccc(C)c(N8CCC(=O)NC8=O)c6)CC7)CC5)nc4c3F)c12 [Example 251, 1-(5-(9-((4-((R)-3-((4-(3,8-diazabicyclo[3.2.1]octan-3-yl)-7-(8-ethynyl-7-fluoro-3-hydroxynaphthalen-1-yl)-8-fluoroquinazolin-2-yl)oxy)-2-methylpropyl)piperazin-1-yl)methyl)-3-azaspiro[5.5]undecane-3-carbonyl)-2-methylphenyl)dihydropyrimidine-2,4(1H,3H)-dione]",,14.3,22.4,40.2,8.72,99.1
"C#Cc1c(F)ccc2cc(O)cc(-c3ncc4c(N5CC6CCC(C5)N6)nc(OC[C@H](C)CN5CCN(CC6CCC7(CC6)CCN(C(=O)c6ccc(C)c(N8CCC(=O)NC8=O)c6)CC7)CC5)nc4c3F)c12 [Example 100, 1-(5-(9-((4-((R)-3-((4-(3,8-diazabicyclo[3.2.1]octan-3-yl)-7-(8-ethynyl-7-fluoro-3-hydroxynaphthalen-1-yl)-8-fluoropyrido[4,3-d]pyrimidin-2-yl)oxy)-2-methylpropyl)piperazin-1-yl)methyl)-3-azaspiro[5.5]undecane-3-carbonyl)-2-methylphenyl)dihydropyrimidine-2,4(1H,3H)-dione]",3.63,2.02,23.8,2.43,2.54,100
"C#Cc1c(F)ccc2cc(O)cc(-c3ncc4c(N5CC6CCC(C5)N6)nc(OC[C@@H](CN5CCN(CC6CCC7(CC6)CCN(C(=O)c6ccc(OC)c(N8CCC(=O)NC8=O)c6)CC7)CC5)C(C)C)nc4c3F)c12 [Example 252, 1-(5-(9-((4-((R)-2-(((4-(3,8-diazabicyclo[3.2.1]octan-3-yl)-7-(8-ethynyl-7-fluoro-3-hydroxynaphthalen-1-yl)-8-fluoropyrido[4,3-d]pyrimidin-2-yl)oxy)methyl)-3-methylbutyl)piperazin-1-yl)methyl)-3-azaspiro[5.5]undecane-3-carbonyl)-2-methoxyphenyl)dihydropyrimidine-2,4(1H,3H)-dione]",31.7,21,51,18.9,42.3,100
"C#Cc1c(F)ccc2cc(O)cc(-c3ncc4c(N5CC6CCC(C5)N6)nc(OC[C@H](C)CN5CCN(CC6CCC7(CC6)CCN(C(=O)c6ccc(Cl)c(N8CCC(=O)NC8=O)c6)CC7)CC5)nc4c3F)c12 [Example 102, 1-(5-(9-((4-((R)-3-((4-(3,8-diazabicyclo[3.2.1]octan-3-yl)-7-(8-ethynyl-7-fluoro-3-hydroxynaphthalen-1-yl)-8-fluoropyrido[4,3-d]pyrimidin-2-yl)oxy)-2-methylpropyl)piperazin-1-yl)methyl)-3-azaspiro[5.5]undecane-3-carbonyl)-2-chlorophenyl)dihydropyrimidine-2,4(1H,3H)-dione]",6.56,3.69,15.2,13.5,8.93,100
"C#Cc1c(F)ccc2cc(O)cc(-c3ncc4c(N5CC6CCC(C5)N6)nc(OC[C@H](C)CN5CCN(CC6CCC7(CC6)CCN(C(=O)c6cc(N8CCC(=O)NC8=O)c(C)cc6F)CC7)CC5)nc4c3F)c12 [Example 173, 1-(5-(9-((4-((R)-3-((4-(3,8-diazabicyclo[3.2.1]octan-3-yl)-7-(8-ethynyl-7-fluoro-3-hydroxynaphthalen-1-yl)-8-fluoropyrido[4,3-d]pyrimidin-2-yl)oxy)-2-methylpropyl)piperazin-1-yl)methyl)-3-azaspiro[5.5]undecane-3-carbonyl)-4-fluoro-2-methylphenyl)dihydropyrimidine-2,4(1H,3H)-dione]",4.22,1.51,5.88,3.8,2.42,99
"C#Cc1c(F)ccc2cc(O)cc(-c3ncc4c(N5CC6CCC(C5)N6)nc(OCC5(CN6CCN(CC7CCC8(CCN(C(=O)c9ccc(C)c(N%10CCC(=O)NC%10=O)c9)CC8)OC7)CC6)CC5)nc4c3F)c12 (stereo not shown) [Example 151, 1-(5-(3-((4-((1-(((4-(3,8-diazabicyclo[3.2.1]octan-3-yl)-7-(8-ethynyl-7-fluoro-3-hydroxynaphthalen-1-yl)-8-fluoropyrido[4,3-d]pyrimidin-2-yl)oxy)methyl)cyclopropyl)methyl)piperazin-1-yl)methyl)-1-oxa-9-azaspiro[5.5]undecane-9-carbonyl)-2-methylphenyl)dihydropyrimidine-2,4(1H,3H)-dione]",6.82,3.86,23.1,6.92,,
